The target in one assay is human V1a receptor (Homo sapiens (Human), UniProt P37288). Nature of the assay: Cellular in vitro assay for determining vasopressin receptor activity (V1a, aequorin luminescence). It is filed as cell-based. As to conditions: for pIC50: CHO cell line transfected with human V1a receptor, [Arg8]-vasopressin at EC50 concentration, read-out: IC50 hV1a; for ratio IC50 hV2/hV1a: selectivity, IC50 hV2 divided by IC50 hV1a. As for the experimental part: (§1) B-1. Cellular In Vitro Assay for Determining Vasopressin Receptor Activity
(§2) The identification of agonists and antagonists of the V1a and V2 vasopressin receptors from humans, rats and dogs as well as the quantification of the activity of the compounds of the invention is carried out using recombinant cell lines. These cell lines originally derive from a hamster's ovary epithelial cell (Chinese Hamster Ovary, CHO K1, ATCC: American Type Culture Collection, Manassas, Va. 20108, USA). The test cell lines constitutively express the human, rat or dog V1a or V2 receptors. In case of the Gαq-coupled V1a receptors, cells are also stably transfected with a modified form of the calcium-sensitive photoproteins aequorin (human and rat V1a) or obe-lin (dog V1a), which, after reconstitution with the cofactor coelenterazine, emit light when there are increases in free calcium concentrations [Rizzuto R, Simpson A W, Brini M, Pozzan T, Nature 358, 325-327 (1992); Illarionov B A, Bondar V S, Illarionova V A, Vysotski E S, Gene 153 (2), 273-274 (1995)]. The resulting vasopressin receptor cells react to stimulation of the recombinantly expressed Via receptors by intracellular release of calcium ions, which can be quantified by the resulting photoprotein luminescence. The Gs-coupled V2 receptors are stably transfected into cell lines expressing the gene for firefly luciferase under control of a CRE-responsible promoter. Activation of V2 receptors induces the activation of the CRE-responsive promoter via cAMP increase, thereby inducing the expression of firefly luciferase. The light emitted by photoproteins of V1a cell lines as well as the light emitted by firefly luciferase of V2 cell lines corresponds to the activation or inhibition of the respective vasopressin receptor. The bioluminescence of the cell lines is detected using a suitable luminometer [Milligan G, Marshall F, Rees S, Trends in Pharmacological Sciences 17, 235-237 (1996)].
Vasopressin V1a Receptor Cell Lines:
On the day before the assay, the cells are plated out in culture medium (DMEM/F12, 2% FCS, 2 mM glutamine, 10 mM HEPES, 5 μg/ml coelenterazine) in 384-well microtiter plates and kept in a cell incubator (96% humidity, 5% v/v CO2, 37° C.). On the day of the assay, test compounds in various concentrations are placed for 10 minutes in the wells of the microtiter plate before the agonist [Arg^8]-vasopressin at EC50 concentration is added. The resulting light signal is measured immediately in a luminometer.
(§3) Table 1A below lists individual IC50 values for the compounds of the invention (including racemic mixtures as well as separated enantiomers) that were obtained from cell lines transfected with the human Via or V2 receptor: […]

For a further assay, the target named is human V2 receptor (Homo sapiens (Human), UniProt P30518). Nature of the assay: Cellular in vitro assay for determining vasopressin receptor activity (V2, CRE-luciferase). It is filed as cell-based. The following applies: CHO cell line transfected with human V2 receptor; [Arg8]-vasopressin at EC50 concentration; read-out: IC50 hV2. As for the experimental part:
as §1, §2
Vasopressin V2 Receptor Cell Lines:
On the day before the assay, the cells are plated out in culture medium (DMEM/F12, 2% FCS, 2 mM glutamine, 10 mM HEPES) in 384-well microtiter plates and kept in a cell incubator (96% humidity, 5% v/v CO2, 37° C.). On the day of the assay, test compounds in various concentrations and the agonist [Arg^8]-vasopressin at EC50 concentration are added together to the wells, and plates are incubated for 3 hours in a cell incubator. Upon addition of the cell lysis reagent Triton™ and the substrate luciferin, luminescence of firefly luciferase is measured in a luminometer.
as §3

pIC50: −log10 of the molar value.

human V1a receptor, sequence (P37288 whole entry): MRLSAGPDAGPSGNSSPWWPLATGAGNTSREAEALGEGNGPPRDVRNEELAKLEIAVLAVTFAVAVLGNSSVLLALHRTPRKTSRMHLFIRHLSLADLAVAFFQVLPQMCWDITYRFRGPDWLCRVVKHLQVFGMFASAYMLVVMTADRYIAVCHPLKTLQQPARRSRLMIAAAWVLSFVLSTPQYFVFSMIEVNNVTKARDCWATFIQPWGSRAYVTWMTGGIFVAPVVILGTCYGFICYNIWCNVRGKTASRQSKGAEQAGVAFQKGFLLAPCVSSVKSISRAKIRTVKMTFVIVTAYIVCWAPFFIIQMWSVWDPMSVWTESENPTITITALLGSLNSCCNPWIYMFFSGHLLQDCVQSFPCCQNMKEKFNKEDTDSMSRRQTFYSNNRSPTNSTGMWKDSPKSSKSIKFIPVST
human V2 receptor, sequence (P30518 whole entry): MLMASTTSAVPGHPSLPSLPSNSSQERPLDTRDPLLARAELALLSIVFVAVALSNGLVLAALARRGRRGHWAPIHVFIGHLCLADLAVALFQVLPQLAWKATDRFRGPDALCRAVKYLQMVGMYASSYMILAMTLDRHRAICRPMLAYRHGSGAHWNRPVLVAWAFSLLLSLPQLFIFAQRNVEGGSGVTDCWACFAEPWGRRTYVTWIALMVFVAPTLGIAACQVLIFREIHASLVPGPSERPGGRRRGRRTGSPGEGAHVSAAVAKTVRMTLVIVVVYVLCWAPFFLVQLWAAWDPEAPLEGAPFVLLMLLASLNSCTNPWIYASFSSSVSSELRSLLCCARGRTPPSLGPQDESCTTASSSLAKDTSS

For `O=C(NC(Cn1c(-c2ccc(Cl)cc2)nn(Cc2ncn(-c3ncccc3C(F)(F)F)n2)c1=O)C(F)(F)F)C1(C(F)(F)F)CC1` (racemic) [Example 58, N-{3-[3-(4-Chlorophenyl)-5-oxo-1-({1-[3-(trifluoromethyl)pyridin-2-yl]-1H-1,2,4-triazol-3-yl}methyl)-1,5-dihydro-4H-1,2,4-triazol-4-yl]-1,1,1-trifluoropropan-2-yl}-1-(trifluoromethyl)cyclopropane-1-carboxamide], the pIC50 was 8.52 at human V1a receptor and 6.92 on human V2 receptor. Moreover, the “ratio IC50 hV2/hV1a” value on human V1a receptor is recorded as 40.2.
In the same order, the values of `CC(C)(C)OC(=O)N1CC(F)(F)C1C(=O)NC(Cn1c(-c2ccc(Cl)cc2)nn(Cc2ncn(-c3ncccc3Cl)n2)c1=O)C(F)(F)F` (stereo not drawn) [Example 54, tert-Butyl 2-({3-[3-(4-chlorophenyl)-1-{[1-(3-chloropyridin-2-yl)-1H-1,2,4-triazol-3-yl]methyl}-5-oxo-1,5-dihydro-4H-1,2,4-triazol-4-yl]-1,1,1-trifluoropropan-2-yl}carbamoyl)-3,3-difluoro-azetidine-1-carboxylate] are 8.41, 6.78 and 42.3.
Taken in the same sequence, the figures for `O=C(NC(Cn1c(-c2ccc(Cl)cc2)nn(Cc2ncn(-c3ncccc3Cl)n2)c1=O)C(F)(F)F)[C@@H]1CC(C(F)(F)F)CN1` (stereo partly drawn) [Example 50] were 8.49, 6.82 and 46.9.
Taken in the same sequence, the figures for `O=C(NC(Cn1c(-c2ccc(Cl)cc2)nn(Cc2ncn(-c3ncccc3Cl)n2)c1=O)C(F)(F)F)C1CS(=O)(=O)C1` (racemic) [Example 38, N-{3-[3-(4-Chlorophenyl)-1-{[1-(3-chloropyridin-2-yl)-1H-1,2,4-triazol-3-yl]methyl}-5-oxo-1,5-dihydro-4H-1,2,4-triazol-4-yl]-1,1,1-trifluoropropan-2-yl}thietane-3-carboxamide 1,1-dioxide] were 8.77, 7.32 and 28.2.
With `O=C(NC(Cn1c(-c2ccc(Cl)cc2)nn(Cc2ncn(-c3ncccc3Cl)n2)c1=O)C(F)(F)F)C1CC1F` (stereo not drawn) [Example 12, N-{3-[3-(4-Chlorophenyl)-1-{[1-(3-chloropyridin-2-yl)-1H-1,2,4-triazol-3-yl]methyl}-5-oxo-1,5-dihydro-4H-1,2,4-triazol-4-yl]-1,1,1-trifluoropropan-2-yl}-2-fluorocyclopropanecarboxamide], the pIC50 at human V1a receptor is 7.65; on human V2 receptor, 6.25. In addition, on human V1a receptor, the “ratio IC50 hV2/hV1a” value worked out at 24.9.
Turning to `O=C(NC(Cn1c(-c2ccc(Cl)cc2)nn(Cc2ncn(-c3ncccc3Cl)n2)c1=O)C(F)(F)F)C1NCC1(F)F` (stereo not drawn) [Example 55, N-{3-[3-(4-Chlorophenyl)-1-{[1-(3-chloropyridin-2-yl)-1H-1,2,4-triazol-3-yl]methyl}-5-oxo-1,5-dihydro-4H-1,2,4-triazol-4-yl]-1,1,1-trifluoropropan-2-yl}-3,3-difluoroazetidine-2-carboxamide], on human V1a receptor, the negative-log IC50 (pIC50) was 8.71 and the “ratio IC50 hV2/hV1a” value worked out at 54.4. On human V2 receptor, the pIC50 was 6.97.
For `N#CC1(C(=O)NC(Cn2c(-c3ccc(Cl)cc3)nn(Cc3ncn(-c4ncccc4C(F)(F)F)n3)c2=O)C(F)(F)F)CC1` (racemic) [Example 65, N-{3-[3-(4-Chlorophenyl)-5-oxo-1-({1-[3-(trifluoromethyl)pyridin-2-yl]-1H-1,2,4-triazol-3-yl}methyl)-1,5-dihydro-4H-1,2,4-triazol-4-yl]-1,1,1-trifluoropropan-2-yl}-1-cyanocyclopropane-1-carboxamide], at human V1a receptor, the pIC50 is 8.04 and the “ratio IC50 hV2/hV1a” value stood at 53.8. Further, the negative-log IC50 (pIC50) at human V2 receptor is 6.31.

Usually pIC50 stands for −log10 of the IC50, conventionally taken in molar units.
